Experimental data taken from ChEMBL document CHEMBL5696441 (Nat Chem Biol, 2011).
Calls of active or inactive are those of the source. No cut-off for these calls is given here.

Key:
[1] = biological target: Cyclin-dependent kinase-like 3 (Homo sapiens) (UniProt Q8IVW4); test: Inhibition of CDKL3 (unknown origin) assessed as remaining activity at 1 uM by Kinome scan method relative to control
[2] = biological target: Citron Rho-interacting kinase (Homo sapiens) (UniProt O14578); test: Inhibition of CIT (unknown origin) assessed as remaining activity at 1 uM by Kinome scan method relative to control
Sequence of Citron Rho-interacting kinase (Homo sapiens) (O14578 whole entry): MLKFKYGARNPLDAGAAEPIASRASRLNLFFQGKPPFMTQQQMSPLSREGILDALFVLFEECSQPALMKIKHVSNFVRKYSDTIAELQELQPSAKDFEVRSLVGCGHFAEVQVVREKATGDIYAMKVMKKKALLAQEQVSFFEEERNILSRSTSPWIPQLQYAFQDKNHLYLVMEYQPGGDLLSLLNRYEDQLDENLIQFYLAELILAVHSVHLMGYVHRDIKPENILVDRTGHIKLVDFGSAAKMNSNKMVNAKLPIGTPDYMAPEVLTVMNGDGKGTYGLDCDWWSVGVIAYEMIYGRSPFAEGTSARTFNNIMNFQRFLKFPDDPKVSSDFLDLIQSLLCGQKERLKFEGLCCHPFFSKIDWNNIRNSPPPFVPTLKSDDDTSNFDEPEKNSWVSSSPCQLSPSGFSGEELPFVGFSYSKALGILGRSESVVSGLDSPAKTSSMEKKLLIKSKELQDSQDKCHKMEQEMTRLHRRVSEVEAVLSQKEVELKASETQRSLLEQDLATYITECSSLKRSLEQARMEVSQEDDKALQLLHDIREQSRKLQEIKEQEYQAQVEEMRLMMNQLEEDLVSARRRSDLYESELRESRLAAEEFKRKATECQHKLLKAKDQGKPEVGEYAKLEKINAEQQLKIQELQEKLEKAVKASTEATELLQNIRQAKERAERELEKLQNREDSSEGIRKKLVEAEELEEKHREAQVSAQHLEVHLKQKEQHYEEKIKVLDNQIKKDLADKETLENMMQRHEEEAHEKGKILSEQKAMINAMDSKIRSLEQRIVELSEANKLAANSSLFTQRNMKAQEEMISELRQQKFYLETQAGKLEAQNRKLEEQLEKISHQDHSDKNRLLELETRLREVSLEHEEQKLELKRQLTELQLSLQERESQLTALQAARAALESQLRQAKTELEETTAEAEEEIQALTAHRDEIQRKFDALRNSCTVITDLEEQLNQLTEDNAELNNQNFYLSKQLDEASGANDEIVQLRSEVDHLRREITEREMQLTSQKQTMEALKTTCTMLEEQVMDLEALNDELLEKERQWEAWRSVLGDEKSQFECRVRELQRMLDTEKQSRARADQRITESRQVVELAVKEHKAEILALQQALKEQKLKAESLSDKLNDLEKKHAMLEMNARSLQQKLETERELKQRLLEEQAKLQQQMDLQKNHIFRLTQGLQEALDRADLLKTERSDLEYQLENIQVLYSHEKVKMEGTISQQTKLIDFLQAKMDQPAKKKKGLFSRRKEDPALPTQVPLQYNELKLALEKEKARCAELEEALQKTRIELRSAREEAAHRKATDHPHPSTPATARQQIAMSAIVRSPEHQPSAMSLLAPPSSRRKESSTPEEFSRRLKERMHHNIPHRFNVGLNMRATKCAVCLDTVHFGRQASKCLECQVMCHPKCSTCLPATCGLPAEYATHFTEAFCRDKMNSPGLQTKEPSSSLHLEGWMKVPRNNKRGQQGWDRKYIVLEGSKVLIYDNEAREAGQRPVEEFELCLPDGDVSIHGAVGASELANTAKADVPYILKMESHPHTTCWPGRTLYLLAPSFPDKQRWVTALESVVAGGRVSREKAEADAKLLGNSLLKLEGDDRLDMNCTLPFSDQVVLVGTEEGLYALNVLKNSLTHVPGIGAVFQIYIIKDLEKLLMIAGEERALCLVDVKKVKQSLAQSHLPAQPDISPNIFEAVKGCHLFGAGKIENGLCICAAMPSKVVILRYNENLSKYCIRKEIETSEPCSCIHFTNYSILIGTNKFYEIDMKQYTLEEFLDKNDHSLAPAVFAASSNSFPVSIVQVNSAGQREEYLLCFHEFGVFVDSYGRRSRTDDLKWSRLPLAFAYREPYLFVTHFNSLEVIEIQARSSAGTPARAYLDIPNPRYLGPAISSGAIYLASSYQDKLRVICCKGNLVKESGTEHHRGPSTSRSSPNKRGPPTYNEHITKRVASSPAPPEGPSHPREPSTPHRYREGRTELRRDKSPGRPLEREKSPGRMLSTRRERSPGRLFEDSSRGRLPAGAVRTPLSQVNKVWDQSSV

[3] = test system: Epidermal growth factor receptor (Homo sapiens), P00533 [UNDEFINED MUTATION]; test: Inhibition of EGFR L747-S752del/P753S mutant (unknown origin) assessed as remaining activity at 1 uM by Kinome scan method relative to control
[4] = biological target: Ephrin type-A receptor 4 (Homo sapiens) (UniProt P54764); test: Inhibition of EPHA4 (unknown origin) assessed as remaining activity at 1 uM by Kinome scan method relative to control
Sequence of Ephrin type-A receptor 4 (Homo sapiens) (P54764 whole entry): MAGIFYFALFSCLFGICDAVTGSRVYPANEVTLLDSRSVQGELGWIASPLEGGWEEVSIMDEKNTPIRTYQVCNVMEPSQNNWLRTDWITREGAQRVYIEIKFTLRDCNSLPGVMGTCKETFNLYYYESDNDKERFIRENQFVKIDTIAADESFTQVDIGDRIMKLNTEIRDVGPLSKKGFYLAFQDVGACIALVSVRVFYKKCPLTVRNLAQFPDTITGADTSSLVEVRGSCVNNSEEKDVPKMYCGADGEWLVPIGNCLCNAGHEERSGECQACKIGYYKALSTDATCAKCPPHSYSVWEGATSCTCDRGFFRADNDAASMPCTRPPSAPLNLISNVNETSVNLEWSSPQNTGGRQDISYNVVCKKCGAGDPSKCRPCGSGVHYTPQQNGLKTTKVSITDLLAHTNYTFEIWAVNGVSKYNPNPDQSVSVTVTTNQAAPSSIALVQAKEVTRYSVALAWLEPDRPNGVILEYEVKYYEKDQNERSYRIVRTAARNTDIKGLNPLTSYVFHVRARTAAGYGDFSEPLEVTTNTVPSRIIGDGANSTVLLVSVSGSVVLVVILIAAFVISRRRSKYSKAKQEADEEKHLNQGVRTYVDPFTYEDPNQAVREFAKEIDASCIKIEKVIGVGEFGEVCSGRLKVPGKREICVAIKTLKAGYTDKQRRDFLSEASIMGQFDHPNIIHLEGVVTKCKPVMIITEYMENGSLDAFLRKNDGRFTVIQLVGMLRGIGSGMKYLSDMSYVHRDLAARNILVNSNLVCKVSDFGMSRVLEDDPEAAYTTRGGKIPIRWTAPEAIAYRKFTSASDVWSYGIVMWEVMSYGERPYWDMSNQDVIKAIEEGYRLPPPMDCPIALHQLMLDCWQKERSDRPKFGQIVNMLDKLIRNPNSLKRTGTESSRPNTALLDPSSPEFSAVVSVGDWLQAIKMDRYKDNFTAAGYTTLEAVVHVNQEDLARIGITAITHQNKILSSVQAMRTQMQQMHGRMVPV

[5] = biological target: Insulin-like growth factor 1 receptor (Homo sapiens) (UniProt P08069); test: Inhibition of IGF1R (unknown origin) assessed as remaining activity at 1 uM by Kinome scan method relative to control
Sequence of Insulin-like growth factor 1 receptor (Homo sapiens) (P08069 31-736 limits assumed): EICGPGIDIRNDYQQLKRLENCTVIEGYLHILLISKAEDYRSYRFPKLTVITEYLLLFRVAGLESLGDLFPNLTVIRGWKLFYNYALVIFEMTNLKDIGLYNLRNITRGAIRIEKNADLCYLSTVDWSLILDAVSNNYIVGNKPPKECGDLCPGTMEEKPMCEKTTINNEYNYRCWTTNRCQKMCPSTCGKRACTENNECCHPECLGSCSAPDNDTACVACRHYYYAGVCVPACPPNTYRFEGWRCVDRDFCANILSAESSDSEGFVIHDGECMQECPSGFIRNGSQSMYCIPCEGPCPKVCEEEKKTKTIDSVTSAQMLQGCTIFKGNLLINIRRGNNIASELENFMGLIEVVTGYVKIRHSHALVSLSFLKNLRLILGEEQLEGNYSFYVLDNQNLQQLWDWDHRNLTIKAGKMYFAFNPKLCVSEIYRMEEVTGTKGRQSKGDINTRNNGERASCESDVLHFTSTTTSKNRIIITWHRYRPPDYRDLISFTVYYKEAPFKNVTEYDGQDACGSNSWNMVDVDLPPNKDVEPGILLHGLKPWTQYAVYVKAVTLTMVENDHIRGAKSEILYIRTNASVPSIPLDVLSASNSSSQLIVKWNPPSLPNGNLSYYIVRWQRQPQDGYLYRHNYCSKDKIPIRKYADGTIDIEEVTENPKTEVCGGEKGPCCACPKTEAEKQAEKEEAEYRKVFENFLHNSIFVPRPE
Sequence of Insulin-like growth factor 1 receptor (Homo sapiens) (P08069 741-1367 limits assumed): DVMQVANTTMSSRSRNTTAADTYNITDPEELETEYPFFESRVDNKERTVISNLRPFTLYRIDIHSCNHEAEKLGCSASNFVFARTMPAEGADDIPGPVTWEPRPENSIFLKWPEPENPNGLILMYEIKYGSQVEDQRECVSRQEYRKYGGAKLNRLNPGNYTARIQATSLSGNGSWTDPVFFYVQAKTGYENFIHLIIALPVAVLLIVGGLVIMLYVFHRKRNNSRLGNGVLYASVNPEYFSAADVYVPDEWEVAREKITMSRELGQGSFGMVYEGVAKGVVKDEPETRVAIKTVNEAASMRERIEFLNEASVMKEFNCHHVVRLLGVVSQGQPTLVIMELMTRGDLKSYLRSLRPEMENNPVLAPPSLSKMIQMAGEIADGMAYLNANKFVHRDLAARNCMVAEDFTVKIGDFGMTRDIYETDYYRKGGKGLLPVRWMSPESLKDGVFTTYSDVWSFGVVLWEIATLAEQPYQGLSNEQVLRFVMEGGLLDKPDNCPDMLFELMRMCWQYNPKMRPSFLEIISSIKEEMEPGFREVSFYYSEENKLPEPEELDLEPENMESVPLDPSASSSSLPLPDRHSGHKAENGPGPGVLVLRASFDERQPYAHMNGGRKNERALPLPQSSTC

[6] = biological target: Mitogen-activated protein kinase kinase kinase 2 (Homo sapiens) (UniProt Q9Y2U5); test: Inhibition of MAP3K2 (unknown origin) assessed as remaining activity at 1 uM by Kinome scan method relative to control
[7] = biological target: NUAK family SNF1-like kinase 2 (Homo sapiens) (UniProt Q9H093); test: Inhibition of SNARK (unknown origin) assessed as remaining activity at 1 uM by Kinome scan method relative to control
[8] = test system: Tyrosine-protein kinase ABL1 (Homo sapiens), P00519 [F317I]; test: Inhibition of human ABL1 F317I mutant assessed as residual activity at 1 uM using Poly(Ala,Glu,Lys,Tyr)6:2:5:1 as substrate in presence of 33P-ATP by ProQinase assay relative to control
[9] = biological target: Activin receptor type-1 (Homo sapiens) (UniProt Q04771); test: Inhibition of human ACVR1 assessed as residual activity at 1 uM using RBER-GSK3(14-27) as substrate in presence of 33P-ATP by ProQinase assay relative to control
[10] = biological target: Dual specificity tyrosine-phosphorylation-regulated kinase 3 (Homo sapiens) (UniProt O43781); test: Inhibition of human DYRK3 assessed as residual activity at 1 uM using RBER-IRStide as substrate in presence of 33P-ATP by ProQinase assay relative to control
[11] = biological target: Rhodopsin kinase GRK7 (Homo sapiens) (UniProt Q8WTQ7); test: Inhibition of human GRK7 assessed as residual activity at 1 uM using casein as substrate in presence of 33P-ATP by ProQinase assay relative to control
Sequence of Rhodopsin kinase GRK7 (Homo sapiens) (Q8WTQ7 whole entry): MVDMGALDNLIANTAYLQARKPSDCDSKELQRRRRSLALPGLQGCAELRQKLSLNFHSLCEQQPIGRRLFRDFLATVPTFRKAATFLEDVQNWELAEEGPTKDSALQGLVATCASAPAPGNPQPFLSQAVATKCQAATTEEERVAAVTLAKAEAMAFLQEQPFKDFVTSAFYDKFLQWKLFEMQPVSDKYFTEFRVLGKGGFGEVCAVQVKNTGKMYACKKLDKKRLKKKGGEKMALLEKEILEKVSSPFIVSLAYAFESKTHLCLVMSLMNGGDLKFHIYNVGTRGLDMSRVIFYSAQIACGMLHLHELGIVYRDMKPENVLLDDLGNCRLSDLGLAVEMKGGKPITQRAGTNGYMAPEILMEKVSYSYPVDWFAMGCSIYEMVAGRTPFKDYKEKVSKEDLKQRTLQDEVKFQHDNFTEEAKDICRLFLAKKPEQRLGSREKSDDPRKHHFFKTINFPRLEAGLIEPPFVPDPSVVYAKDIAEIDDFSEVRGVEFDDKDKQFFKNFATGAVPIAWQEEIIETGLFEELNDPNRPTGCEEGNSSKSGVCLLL

[12] = biological target: Serine/threonine-protein kinase haspin (Homo sapiens) (UniProt Q8TF76); test: Inhibition of human GSG2 assessed as residual activity at 1 uM using histon H3 as substrate in presence of 33P-ATP by ProQinase assay relative to control
[13] = biological target: LIM domain kinase 2 (Homo sapiens) (UniProt P53671); test: Inhibition of human LIMK2 assessed as residual activity at 1 uM using CFL1 as substrate in presence of 33P-ATP by ProQinase assay relative to control
[14] = biological target: MAP kinase-activated protein kinase 5 (Homo sapiens) (UniProt Q8IW41); test: Inhibition of human MAPKAPK5 assessed as residual activity at 1 uM using RBER-CHKtide as substrate in presence of 33P-ATP by ProQinase assay relative to control
[15] = biological target: Lymphokine-activated killer T-cell-originated protein kinase (Homo sapiens) (UniProt Q96KB5); test: Inhibition of human PBK assessed as residual activity at 1 uM using histon H1 as substrate in presence of 33P-ATP by ProQinase assay relative to control
[16] = test system: Platelet-derived growth factor receptor alpha (Homo sapiens), P16234 [T674I]; test: Inhibition of human PDGFRalpha T674I mutant assessed as residual activity at 1 uM using Poly(Ala,Glu,Lys,Tyr)6:2:5:1 as substrate in presence of 33P-ATP by ProQinase assay relative to control
Homo sapiens = organism: Homo sapiens; test: Inhibition of human PKA assessed as residual activity at 1 uM using bio-4xCHKT as substrate in presence of 33P-ATP by ProQinase assay relative to control
[17] = biological target: Rho-associated protein kinase 1 (Homo sapiens) (UniProt Q13464); test: Inhibition of human ROCK1 assessed as residual activity at 1 uM using 3xChocktide-PKC(19-31) as substrate in presence of 33P-ATP by ProQinase assay relative to control
[18] = biological target: Serine/threonine-protein kinase 25 (Homo sapiens) (UniProt O00506); test: Inhibition of human STK25 assessed as residual activity at 1 uM using casein as substrate in presence of 33P-ATP by ProQinase assay relative to control
[19] = biological target: MAP kinase p38 (Homo sapiens) (UniProt O15264+Q15759+Q16539+P53778); test: Inhibition of p38-MAPK in human HeLa cells assessed as reduction in HSP27 phosphorylation at Ser82 level at 50 nM incubated for 2 hrs in the presence of anisomycin stimulation for 40 mins by western blot analysis; assay type: cell-based
[20] = Anti-inflammatory activity against human derived medium respond PBMC cells assessed as inhibition in stimulated TNF-alpha cytokine release incubated for 2 hrs in the presence of LPS/SEB/aCD28 by Luminex based sandwich immunoassay; assay type: functional, cell-based
Mus musculus = test: In vivo anti-inflammatory activity in Gal/LPS induced mouse assessed as TNF-alpha release at 3 mg/kg, po administered for 1 hrs; assay type: functional
CYP1A = CYP1A (Homo sapiens, UniProt P04798+P05177); test: Inhibition of CYP1A (unknown origin) at 10 uM relative to control; assay type: ADME, protein assay
[21] = biological target: 3-phosphoinositide-dependent protein kinase 1 (Homo sapiens) (UniProt O15530); test: Inhibition of human PDK1 assessed as residual activity at 1 uM using bio-4xCHKT as substrate in presence of 33P-ATP by ProQinase assay relative to control

Compound O=C1c2ccc(Nc3ccc(F)cc3F)cc2CCc2ccc(OC[C@H](O)CO)cc21 [Skepinone-L] has an Activity [1] of 78%, an Activity [2] of 92% and an Activity [3] of 100%. It also gave an Activity [4] of 100%, an Activity [5] of 91% and an Activity [6] of 100%. The Activity [7] was 100%, the Activity [8] was 102% and the Activity [9] was 94%. The Activity [10] was 98%, the Activity [11] was 107% and the Activity [12] was 82%. The Activity [13] was 100%, the Activity [14] was 97% and the Activity [15] was 113%. The Activity [16] was 97%, the Activity (Homo sapiens) was 94% and the Activity [17] was 97%. For the same compound, the Activity [18] was 100%, the inhibition [19] was “Active” and the IC50 [20] was 860 nM. It also gave an Activity (Mus musculus) of 36.3 pg/mL, an inhibition at 10 µM (CYP1A) of -19% and an Activity [21] of 97%.
